Source: patent US5767296A, “Deacetoxytaxol derivatives” (Daiichi Pharmaceutical Co., Ltd., priority 1994, dated 1998)
In brackets after ≈: the same amount, converted by molar mass. Like-named read-outs stand apart in the source and are kept apart here.

Legend:
[1] = test system: P388; experiment: Antitumor effect by MTT assay, P388 tumor cells; format: cell-based; settings: Mus musculus, read-out: GI50 Value
Method: (§1) Each of three tumor cells, P388, PC-6 and PC-12, were inoculated in a 96-well microplate in amounts of 5.0×10^2 cells/150 μl/well of P388, 5.0×10^3 cells/150 μl/well of PC-6, and 1.0×10^3 cells/150 μl/well of PC-12, and after 2 hours in the case of P388 or after 24 hours in the cases of PC-6 and PC-12, test compound was added to the well in an amount of 50 μl/well in each case. Cells were cultivated for 3 days. Then, a 5 mg/ml solution of MTT [3-(4,5-dimethylthiazol-2-yl)-2,5-diphenyl-2H-tetrazolium bromide] was added to the well in an amount of 20 μl/well. After 4 hours, the culture liquid was removed, dimethylsulfoxide was added to the well in an amount of 150 μl/well, and the absorbance at 540 nm was measured. The antitumor effect was determined in terms of a concentration of the test compound required for suppressing the cell growth in the medicated group to 50% of the cell growth in the control group, i.e., a GI50 value (ng/ml).

[2] = test system: PC-6; experiment: Antitumor effect by MTT assay, PC-6 tumor cells; format: cell-based; settings: Homo sapiens, read-out: GI50 Value
Method: as §1

[3] = test system: PC-12; experiment: Antitumor effect by MTT assay, PC-12 tumor cells; format: cell-based; settings: Rattus norvegicus, read-out: GI50 Value
Method: as §1

[4] = test system: microtubules; settings: background art; cited from earlier work
[5] = test system: cancers of digestive tracts, in particular, the cancer of large intestine; settings: background art; cited from earlier work
[6] = test system: tumor; settings: background art; cited from earlier work

Row | Structure (SMILES) | GI50 ([1]; P388, 72 h) [ng/mL] | GI50 ([2]; PC-6, 72 h) [ng/mL] | GI50 ([3]; PC-12, 72 h) [ng/mL] | GI50 ([1]; 72 h, P388, 3 days, MTT) [ng/mL] | GI50 ([2]; 72 h, PC-6, 3 days, MTT) [ng/mL] | GI50 ([3]; 72 h, PC-12, 3 days, MTT) [ng/mL] | inhibitory activity on the disassembly of microtubules in cytokinesis [4] | effectiveness on cancers of digestive tracts [5] | antitumor activity compared with taxol [6]
1 | CCC(=O)O[C@@]12CO[C@@H]1C[C@H](O)[C@@]1(C)C(=O)C(CCN3CCOCC3)C3=C(C)[C@@H](OC(=O)C(O)C(C=C(C)C)NC(=O)OC(C)(C)C)C[C@@](O)([C@@H](OC(=O)c4ccccc4)[C@H]21)C3(C)C (single isomer, unassigned) [Example 33 Isomer B, 13-O-[3-(tert-Butoxycarbonylamino)-2-hydroxy-5-methyl-4-hexenoyl]-10-deacetoxy-4-deacetyl-10-(2-morpholinoethyl)-4-O-propionylbaccatin III] | 0.69 (≈ 0.769 nM) | 4.13 (≈ 4.6 nM) | 4.16 (≈ 4.64 nM) | – | – | – | – | – | –
2 | COC(=O)CCC1C(=O)[C@@]2(C)[C@H]([C@H](OC(=O)c3ccccc3)[C@]3(O)C[C@H](OC(=O)[C@H](O)[C@@H](NC(=O)OC(C)(C)C)c4ccccc4)C(C)=C1C3(C)C)[C@]1(OC(C)=O)CO[C@@H]1C[C@@H]2O (stereo partly drawn) [Example 7, 13-O-[(2R,3S)-3-(tert-Butoxycarbonylamino)-2-hydroxy-3-phenylpropionyl]-10-deacetoxy-10-(2-methoxycarbonylethyl)baccatin III] | 3.3 (≈ 3.76 nM) | 0.771 (≈ 0.878 nM) | 24.4 (≈ 27.8 nM) | – | – | – | – | – | –
3 | C=CCC1C(=O)[C@@]2(C)[C@H]([C@H](OC(=O)c3ccccc3)[C@]3(O)C[C@H](OC(=O)[C@H](O)[C@@H](NC(=O)OC(C)(C)C)c4ccccc4)C(C)=C1C3(C)C)[C@]1(OC(C)=O)CO[C@@H]1C[C@@H]2O (stereo partly drawn) [Example 16, 10-Allyl-13-O-[(2R,3S)-3-(tert-butoxycarbonylamino)-2-hydroxy-3-phenylpropionyl]-10-deacetoxybaccatin III] | 1.16 (≈ 1.39 nM) | 0.677 (≈ 0.814 nM) | 7.87 (≈ 9.46 nM) | – | – | – | – | – | –
4 | CC(=O)O[C@@]12CO[C@@H]1C[C@H](O)[C@@]1(C)C(=O)C(CC=O)C3=C(C)[C@@H](OC(=O)[C@H](O)[C@@H](NC(=O)OC(C)(C)C)c4ccccc4)C[C@@](O)([C@@H](OC(=O)c4ccccc4)[C@H]21)C3(C)C (stereo partly drawn) [Example 18, 13-O-[(2R,3S)-3-(tert-Butoxycarbonylamino)-2-hydroxy-3-phenylpropionyl]-10-deacetoxy-10-(formylmethyl)baccatin III] | 1.19 (≈ 1.43 nM) | 0.983 (≈ 1.18 nM) | 12.9 (≈ 15.5 nM) | – | – | – | – | – | –
5 | CC(=O)O[C@@]12CO[C@@H]1C[C@H](O)[C@@]1(C)C(=O)C(CCN3CCOCC3)C3=C(C)[C@@H](OC(=O)[C@H](O)[C@@H](NC(=O)OC(C)(C)C)c4ccccc4)C[C@@](O)([C@@H](OC(=O)c4ccccc4)[C@H]21)C3(C)C (stereo partly drawn) [Example 20, 13-O-[(2R,3S)-3-(tert-Butoxycarbonylamino)-2-hydroxy-3-phenylpropionyl]-10-deacetoxy-10-(2-morpholinoethyl)baccatin III] | – | – | – | 3.07 (≈ 3.39 nM) | 0.603 (≈ 0.666 nM) | 13.5 (≈ 14.9 nM) | – | – | –
6 | CCCC(=O)O[C@@]12CO[C@@H]1C[C@H](O)[C@@]1(C)C(=O)C(CCN3CCOCC3)C3=C(C)[C@@H](OC(=O)[C@H](O)[C@@H](NC(=O)OC(C)(C)C)c4ccccc4)C[C@@](O)([C@@H](OC(=O)c4ccccc4)[C@H]21)C3(C)C (stereo partly drawn) [Example 24, 4-O-Butanoyl-13-O-[(2R,3S)-3-(tert-butoxycarbonylamino)-2-hydroxy-3-phenylpropionyl]-10-deacetoxy-4-deacetyl-10-(2-morpholinoethyl)baccatin III] | 0.845 (≈ 0.906 nM) | 1.67 (≈ 1.79 nM) | 4.99 (≈ 5.35 nM) | – | – | – | – | – | –
7 | C=CCC1C(=O)[C@@]2(C)[C@H]([C@H](OC(=O)c3ccccc3)[C@]3(O)C[C@H](OC(=O)[C@H](O)[C@@H](NC(=O)OC(C)(C)C)c4ccco4)C(C)=C1C3(C)C)[C@]1(OC(=O)CCC)CO[C@@H]1C[C@@H]2O (stereo partly drawn) [Example 25, 10-Allyl-4-O-Butanoyl-13-O-[3-(tert-butoxycarbonylamino)-3-(2-furyl)-2-hydroxypropionyl]-10-deacetoxy-4-deacetylbaccatin III] | – | – | – | 0.226 (≈ 0.266 nM) | 0.771 (≈ 0.907 nM) | 1.34 (≈ 1.58 nM) | – | – | –
8 | CCC(=O)O[C@@]12CO[C@@H]1C[C@H](O)[C@@]1(C)C(=O)C(CCN3CCOCC3)C3=C(C)[C@@H](OC(=O)[C@H](O)[C@@H](NC(=O)OC(C)(C)C)c4ccccc4)C[C@@](O)([C@@H](OC(=O)c4ccccc4)[C@H]21)C3(C)C (stereo partly drawn) [Example 26, 13-O-[(2R,3S)-3-(tert-butoxycarbonylamino)-2-hydroxy-3-phenylpropionyl]-10-deacetoxy-4-deacetyl-10-(2-morpholinoethyl)-4-O-propionylbaccatin III] | 1.07 (≈ 1.16 nM) | 1.22 (≈ 1.33 nM) | 5.64 (≈ 6.14 nM) | – | – | – | – | – | –
9 | CCC(=O)O[C@@]12CO[C@@H]1C[C@H](O)[C@@]1(C)C(=O)C(CCN3CCOCC3)C3=C(C)[C@@H](OC(=O)[C@H](O)[C@@H](NC(=O)OC(C)(C)C)c4ccco4)C[C@@](O)([C@@H](OC(=O)c4ccccc4)[C@H]21)C3(C)C (stereo partly drawn) [Example 31, 13-O-[(2R,3S)-3-(tert-Butoxycarbonylamino)-3-(2-furyl)-2-hydroxypropionyl]-10-deacetoxy-4-deacetyl-10-(2-morpholinoethyl)-4-O-propionylbaccatin III] | 0.136 (≈ 0.15 nM) | 1.03 (≈ 1.13 nM) | 1.26 (≈ 1.39 nM) | – | – | – | – | – | –
10 | CCOC(=O)O[C@@]12CO[C@@H]1C[C@H](O)[C@@]1(C)C(=O)C(CCN3CCOCC3)C3=C(C)[C@@H](OC(=O)[C@H](O)[C@@H](NC(=O)OC(C)(C)C)c4ccccc4)C[C@@](O)([C@@H](OC(=O)c4ccccc4)[C@H]21)C3(C)C (stereo partly drawn) [Example 35, 13-O-[(2R,3S)-3-(tert-Butoxycarbonylamino)-2-hydroxy-3-phenylpropionyl]-10-deacetoxy-4-deacetyl4-O-ethoxycarbonyl-10-(2-morpholinoethyl)baccatin III] | 0.729 (≈ 0.78 nM) | 1.83 (≈ 1.96 nM) | 2.95 (≈ 3.15 nM) | – | – | – | – | – | –
11 | CC1=C2C(CCN3CCOCC3)C(=O)[C@@]3(C)[C@H]([C@H](OC(=O)c4ccccc4)[C@](O)(C[C@@H]1OC(=O)[C@H](O)[C@@H](NC(=O)OC(C)(C)C)c1ccccc1)C2(C)C)[C@]1(OC(=O)C2CC2)CO[C@@H]1C[C@@H]3O (stereo partly drawn) [Example 36, 13-O-[(2R,3S)-3-(tert-butoxycarbonylamino)-2-hydroxy-3-phenylpropionyl]-4-O-cyclopropylcarbonyl-10-deacetoxy-10-(2-morpholinoethyl)baccatin III] | 0.505 (≈ 0.542 nM) | 1.64 (≈ 1.76 nM) | 1.81 (≈ 1.94 nM) | – | – | – | – | – | –
12 | CC(=O)O[C@H]1C(=O)[C@@]2(C)[C@H]([C@H](OC(=O)c3ccccc3)[C@]3(O)C[C@H](OC(=O)[C@H](O)[C@@H](NC(=O)c4ccccc4)c4ccccc4)C(C)=C1C3(C)C)[C@]1(OC(C)=O)CO[C@@H]1C[C@@H]2O [Taxol] | 30.4 (≈ 35.6 nM) | 3.51 (≈ 4.11 nM) | 136 (≈ 159 nM) | – | – | – | inhibitory activity on the disassembly of microtubules in cytokinesis | weak | –
13 | CC(=O)O[C@@]12CO[C@@H]1C[C@H](O)[C@@]1(C)C(=O)[C@H](O)C3=C(C)[C@@H](OC(=O)[C@H](O)[C@@H](NC(=O)OC(C)(C)C)c4ccccc4)C[C@@](O)([C@@H](OC(=O)c4ccccc4)[C@H]21)C3(C)C [Taxotel, reference compound] | – | – | – | 5.3 (≈ 6.56 nM) | 1.72 (≈ 2.13 nM) | 49.7 (≈ 61.5 nM) | – | – | equal to or higher than that of taxol
